# Test results from patent US6600057B2, “Matrix metalloproteinase inhibitors” (Kimberly-Clark Worldwide, Inc., priority 2000, dated 2003).
# Biological target: MMP-9 (Homo sapiens, UniProt P14780)
# Assay: Fluorometric assay of MMP-9 inhibition (cleavage of a fluorogenic peptide substrate)
# Assay type: biochemical
# Conditions: incubated 30 minutes at room temperature
# Method: The second assay utilized the technique of fluorescence resonance energy transfer (FRET). The substrate peptide (Calbiochem) comprised seven amino acids coupled to a carboxyl terminal dinitrophenyl acceptor, and an amino terminal 2-aminobenzo-anthraniloyl (Abz) moiety donor. Cleavage of this substrate by MMP-9 results in the liberation of a fluorescent product (365 nm excitation, 450 nm emission). […] MMP at a concentration of 0.5 μM was mixed with varying amounts of compound and incubated at 25° C. for 10 minutes in order to effect binding. The protein mixture was added to the peptide substrate, and was quickly mixed. Fluorescence intensity as a function of time was measured with a Dynex MFX fluorescence microtiter plate reader. Fluorescence intensity was related back to moles of peptide cleaved by producing a standard curve with an Abz containing non-FRET peptide. Inhibitory constants were derived from the curves as above. (Segel, IH. (1993) Enzyme Kinetics: Behavior and analysis of rapid equilibrium and steady-state enzyme systems. Wiley Classics Library, John Wiley and Sons, Inc. New York.)
# The inhibition of MMP-9 by AQCA was measured by fluorometric assay. The fluorometric assay measures the cleavage of a fluorogenic peptide substrate (excitation wavelength 355 nm, emission wavelength 455 nm). MMP-9 is incubated with 0 mM AQCA (open circles), 1 mM AQCA (closed circles); or 2 mM AQCA (closed squares) for 30 minutes at room temperature. Fluorescence is measured at the times (in minutes) indicated.
# Inhibition of MMP-9. Fluorometric assay which measures the cleavage of a fluorogenic peptide substrate (excitation wavelength 355 nm, emission wavelength 455 nm). […] Fluorescence is measured at the times (in minutes) indicated.
# The inhibition of MMP-9 by anthraquinyl-mercaptoethylamine was measured by fluorometric assay. […] Fluorescence is measured at the times (in minutes) indicated.
# The inhibition of MMP-9 by anthraquinyl alanine hyroxamate was measured by fluorometric assay. […] Fluorescence is measured at the times (in minutes) indicated.
# [1] = 0.25 mM compound, FIG. 3 and FIG. 4
# Sequence of MMP-9 (P14780 94-707, species assumed): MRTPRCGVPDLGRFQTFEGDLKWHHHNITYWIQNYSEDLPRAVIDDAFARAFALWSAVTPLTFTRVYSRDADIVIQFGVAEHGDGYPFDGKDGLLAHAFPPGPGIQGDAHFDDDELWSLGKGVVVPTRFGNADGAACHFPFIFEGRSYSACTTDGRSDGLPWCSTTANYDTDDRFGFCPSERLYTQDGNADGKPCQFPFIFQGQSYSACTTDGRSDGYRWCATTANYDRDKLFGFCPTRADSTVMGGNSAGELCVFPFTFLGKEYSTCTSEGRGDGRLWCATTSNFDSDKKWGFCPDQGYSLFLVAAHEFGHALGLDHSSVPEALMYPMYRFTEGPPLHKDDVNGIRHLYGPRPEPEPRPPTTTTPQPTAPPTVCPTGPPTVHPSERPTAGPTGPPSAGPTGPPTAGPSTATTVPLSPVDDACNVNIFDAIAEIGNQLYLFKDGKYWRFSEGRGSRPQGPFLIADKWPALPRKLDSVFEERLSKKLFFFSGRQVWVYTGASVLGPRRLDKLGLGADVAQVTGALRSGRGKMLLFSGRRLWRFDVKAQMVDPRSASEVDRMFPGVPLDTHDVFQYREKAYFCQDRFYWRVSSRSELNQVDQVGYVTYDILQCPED
Compound,"inhibition of the enzymatic activity of MMP-9 (1 mM or 2 mM AQCA, FIG. 2)",inhibition of the enzymatic activity of MMP-9 [1]
"O=C(O)c1cc(O)c2c(c1)C(=O)c1cccc(O)c1C2=O [AQCA, 4,5-dihydroxyanthaquinone-2-carboxylic acid]",inhibited the enzymatic activity of MMP-9 in a dose dependent manner,
"CC(NC(=O)c1cc(O)c2c(c1)C(=O)c1cccc(O)c1C2=O)C(=O)NO (stereo not drawn) [anthraquinyl alanine hyroxamate, anthraquinyl-alanine hydroxamate]",,inhibited the enzymatic activity of MMP-9
"O=C(NCCS)c1cc(O)c2c(c1)C(=O)c1cccc(O)c1C2=O [anthraquinyl mercaptoethylamine, anthraquinyl-mercaptoethyamine]",,inhibited the enzymatic activity of MMP-9
